Data on seven molecules can be found in patent US20170216240A1, “METHODS FOR MODULATING IKS CHANNEL ACTIVITY” (UNIVERSITY OF MIAMI, priority 2014, published 2017).

One series addresses Kv7.1 (Homo sapiens, UniProt P51787). As to the kind of experiment: G(V) shift of Kv7.1 expressed in Xenopus laevis oocytes, two-electrode voltage-clamp. The series is classed as cell-based. From the text: (§1) cDNAs encoding human Kv7.1 (GEnBAnk Acc. No. NM_000218) and KCNE1 (NM_000219) were subcloned into the expression vectors pGEM or pXOOM, containing the 5′- and 3′-untranslated regions for Xenopus laevis β-globin as well as a poly-A segment (Jespersen et al., Biotechniques 32, 536-538, 540 (2002)). The truncated KCNE1 construct KCNE1ΔC was constructed by introducing a Stop codon at position 67 using Quikchange site-directed mutagenesis kit (Qiagen). The construct was fully sequenced to ensure proper mutation and absence of unwanted mutations (sequencing by Genewiz). The concatemers E1-Kv7.1-Kv7.1 and E1-Kv7.1 were provided by Dr. R. S. Kass at Columbia University, and can be prepared as described in Chan et al. Journal of General Physiology 132(2), 135-144, (2012)). The E1-Kv7.1 construct was made by linking the C-terminus of KCNE1 to the N-terminus of KCNQ1. The E1-Kv7.1-Kv7.1 construct was made by digesting the E1-Kv7.1 and a Kv7.1-Kv7.1 dimer with Xho1 and inserting the 2-kb fragment from the Kv7.1-Kv7.1 dimer digest into the cut KCNE1-Kv7.1 construct. The DNA encoding E1-Kv7.1-Kv7.1 and E1-Kv7.1 were in the pGEM vector and contained mutations to make the constructs suitable for voltage-clamp fluorometry recordings (Wang et al., J Biol Chem 273, 34069-34074 (1998)). The original KCNE1 and Kv7.1 sequences were therefore removed, one at a time, from the pGEM vector using different restriction enzymes (New England Biolabs). Sequences were separated using gel electrophoresis and harvested using Qiagen gel extraction kit. Corresponding wild type sequences were ligated into the construct using T4 Ligase (New England Biolabs). To ensure correct sequence the constructs were sequenced (Genewiz) and tested with different restriction enzymes in combination with gel electrophoresis to measure length and conformation of the gene. cRNA for injection of all constructs was prepared from linearized DNA using the T7 mMessage mMachine transcription kit (Ambion) according to the manufactures instructions. RNA quality was checked by gel electrophoresis, and RNA concentrations were quantified by UV spectroscopy.
(§2) Xenopus laevis oocytes were isolated and maintained (Bentzen, B. H. et al. Neuropharmacology 51, 1068-1077 (2006)). Approximately 50 nl cRNA (50 ng Kv7.1, KCNE1-Kv7.1-Kv7.1 or KCNE1-Kv7.1 alternatively 25 ng Kv7.1 together with 8 ng KCNE1 or KCNE1ΔC) was injected into each oocyte using a Nanojet microinjector (Drummond). Electrophysiological experiments were made 2-5 days after injection. Currents were measured at room temperature with the two-electrode voltage-clamp technique (CA-1B Dagan amplifier). Currents were sampled at 1-3.3 kHz, filtered at 500 Hz, and not leakage corrected. […] A control solution containing (in mM): 88 NaCl, 1 KCl, 15 HEPES, 0.4 CaCl2, and 0.8 MgCl2 was used. NaOH was added to adjust pH to 7.4, yielding a final sodium concentration of about 100 mM. The holding voltage was generally set to −80 mV. Activation curves were generally elicited by stepping to test voltages between −110 and +60 mV (2-4 s durations and 10 mV increments) followed by a tail voltage of −30 mV. For recordings of Kv7.1 at pH 9 and pH 10, the holding voltage was set to more negative voltages because the largest DHA-induced shifts induced channel opening already at −80 mV. […] Therefore, in arachidonyl amine experiments a brief hyperpolarizing pulse of 50 ms to −120 mV was introduced between the test voltage and the tail voltage to relief the channels from inactivation.
(§3) Test compounds were dissolved in 99.5% ethanol to a concentration of 100 mM and stored at −20° C. (Börjesson et al., Biophys J 95, 2242-2253 (2008); Börjesson et al., Biophys J 98, 396-403 (2010)). Shortly before experiments, test compounds were diluted in control solution to the desired test concentration. Pure control solution was added to the bath using a gravity-driven perfusion system. […]

The next series deals with T1, Kv7.1/KCNE1 (Homo sapiens, UniProt P51787).
T1 construct: expressed in transfected cells; host or cells: Xenopus laevis oocytes (cRNA co-injection)
As to the kind of experiment: G(V) shift of Kv7.1 co-expressed with KCNE1 in Xenopus oocytes, two-electrode voltage-clamp. The settings on record: for ΔV1/2 ± SEM (G(V) shift): Kv7.1/E1; for pKa: human, Xenopus oocytes co-expressing human Kv7.1 and KCNE1, read-out: apparent pKa (pH of c0.5). Format: cell-based.
Source text: as §1, §2, §3

The subject of a further series is intact guinea pig hearts. The series is described as follows: Restoration of QT interval in intact hearts with E4031-induced Long QT. The settings on record: E4031. From the text:
Long QT syndrome was induced in intact guinea pig hearts by administration of the drug E4031, a HERG channel blocker.

A further series in a line: in vitro. Particulars: human, Caco-2.
A further series has as its target KCNE1-Kv7.1 (Homo sapiens, UniProt P15382+P51787). As to the kind of experiment: G(V) shift of KCNE1-Kv7.1 concatemer (4:4 stoichiometry) in Xenopus oocytes. Format: cell-based. Particulars: 70 μM; for ΔV1/2 ± SEM (G(V) shift): E1-Kv7.1.
Source text: (§4) As used herein, the terms “KCNE1-Kv7.1” and “KCNE1-Kv7.1-Kv7.1” refer to concatemers of Kv7.1 and KCNE1 in 4:4 and 4:2 stoichiometry, respectively.
as §1, with “The original KCNE1 and Kv7.1 sequences were therefore removed, one at a time, from the pGEM vector using different restriction enzymes (New England Biolabs). Sequences were separated using gel electrophoresis and harvested using Qiagen gel extraction kit. Corresponding wild type sequences were ligated into the construct using T4 Ligase (New England Biolabs). To ensure correct sequence the constructs were sequenced (Genewiz) and tested with different restriction enzymes in combination with gel electrophoresis to measure length and conformation of the gene. cRNA for injection of all constructs was prepared from linearized DNA using the T7 mMessage mMachine transcription kit (Ambion) according to the manufactures instructions.” left out
(§5) Xenopus laevis oocytes were isolated and maintained (Bentzen, B. H. et al. Neuropharmacology 51, 1068-1077 (2006)). […] Currents were measured at room temperature with the two-electrode voltage-clamp technique (CA-1B Dagan amplifier). […]
(§6) Xenopus laevis oocyte data were acquired using either Pulse software (HEKA) or Clampex 10.2 (Axon Instruments), and analyzed with Clampfit 10 (Axon Instruments) and GraphPad Prism 4 (GraphPad Software). […]

The next series concerns the target KCNE1-Kv7.1-Kv7.1 (Homo sapiens, UniProt P15382+P51787). The series is described as follows: G(V) shift of KCNE1-Kv7.1-Kv7.1 concatemer (4:2 stoichiometry) in Xenopus oocytes. The settings on record: 70 μM; for ΔV1/2 ± SEM (G(V) shift): E1-Kv7.1-Kv7.1. Format: cell-based.
Source text: as §4
as §1, with “The original KCNE1 and Kv7.1 sequences were therefore removed, one at a time, from the pGEM vector using different restriction enzymes (New England Biolabs). Sequences were separated using gel electrophoresis and harvested using Qiagen gel extraction kit. Corresponding wild type sequences were ligated into the construct using T4 Ligase (New England Biolabs). To ensure correct sequence the constructs were sequenced (Genewiz) and tested with different restriction enzymes in combination with gel electrophoresis to measure length and conformation of the gene. cRNA for injection of all constructs was prepared from linearized DNA using the T7 mMessage mMachine transcription kit (Ambion) according to the manufactures instructions.” left out
as §5, §6

“And” between values parts separate entries of the source, which are not always exact repeats. Equal values may be shown once. Read-outs that look alike come from different tables or passages of the source.

Take `CCCCCCCC/C=C\CCCCCCCC(=O)O` [OA, oleic acid]: the “ΔV1/2 ± SEM (G(V) shift)” value is reported as −1.0±0.5 mV at Kv7.1 (Kv7.1, 70 μM, pH 7.4) and “no effect” at Kv7.1 (Kv7.1, 70 μM, pH 7.4, listed as Oleic acid).

Take `CCCCC/C=C\C/C=C\C/C=C\C/C=C\CCCCN` [AA+, arachidonyl amine]: at Kv7.1 (Kv7.1), the Kv7.1 channel inactivation entry is on record as “induced Kv7.1 channel inactivation”. Also, the “ΔV1/2 ± SEM (G(V) shift)” value at Kv7.1 (Kv7.1, 70 μM, pH 7.4) is on record as “+9.7 ± 2.1 mV”; on Kv7.1 (Kv7.1, 70 μM, pH 7.4, listed as Arachidonyl amine), “+9.7±2.1 mV”; at Kv7.1 (Kv7.1, 70 μM, pH 7.4, listed as arachidonyl amine) it was “+9.7±2.1 mV”; on Kv7.1/KCNE1 (70 μM, pH 7.4), “+22.6 ± 1.9 mV”; at Kv7.1/KCNE1 (70 μM, pH 7.4, listed as arachidonyl amine), “+22.6±1.9 mV”. Moreover, on Kv7.1/KCNE1 (Kv7.1/KCNE1, 70 μM, pH 7.4), the “G(V) shift of a representative cell (control curve shifted)” value was “+28 mV”. For the same molecule, at Kv7.1/KCNE1 (Kv7.1/KCNE1, pH 7), the “G(V) shift” value is recorded as “about +25 mV”.

On to `CC(C)NCC(O)COc1cccc2ccccc12` (centres unmarked) [propranolol, reference compound], for which, in the series with Caco-2 cells, the “permeability coefficient (Papp)” value is 20×10^−6 cms^−1.

Consider `CC/C=C\C/C=C\C/C=C\C/C=C\C/C=C\C/C=C\CCC(=O)NCC(=O)O` [DHA-Gly, docosahexaenoyl glycine], for which the “apparent pKa lower than that of DHA” value on Kv7.1/KCNE1 (Kv7.1/KCNE1) is “about 1.5 pH unit”. The pKa on Kv7.1/KCNE1 (Kv7.1/KCNE1, 70 μM) was determined as 6.9. Also, in the series with intact guinea pig hearts, the “concentration able to restore the QT intervals” value was determined as 10 µM. The efflux ratio in the series “in vitro” was found to be 3.6.

As for `CC/C=C\C/C=C\C/C=C\C/C=C\C/C=C\C/C=C\CCC(=O)OC` [DHA-me, 4,7,10,13,16,19-all-cis-docosahexaenoic acid methyl ester], the “ΔV1/2 ± SEM (G(V) shift)” value at Kv7.1 (Kv7.1, 70 μM, pH 7.4) is given as “+2.8 ± 2.5 mV”; at Kv7.1 (Kv7.1, 70 μM, pH 7.4, listed as DHA methyl ester), “no effect”; at Kv7.1 (Kv7.1, 70 μM, pH 7.4, listed as DHA-Me), “+2.8±2.5 mV”; on KCNE1-Kv7.1 (pH 7.4), “+5.0 ± 1.3 mV”; at KCNE1-Kv7.1 (pH 9.0) it was “+3.6 ± 2.6 mV”; on KCNE1-Kv7.1-Kv7.1 (pH 7.4), “+5.7 ± 0.9 mV”. Besides, the “ΔV1/2 ± SEM (G(V) shift)” value on KCNE1-Kv7.1-Kv7.1 (pH 9.0) was “+8.2 ± 2.7 mV”.

Consider `CC/C=C\C/C=C\C/C=C\C/C=C\C/C=C\C/C=C\CCC(=O)O` [DHA, 4,7,10,13,16,19-all-cis-docosahexaenoic acid], for which the maximal conductance entry on Kv7.1 (Kv7.1) is “without affecting maximal conductance”. Also, the “G(V) shift” value on Kv7.1 (Kv7.1, 7 μM) was −3.0±0.5 mV; at Kv7.1 (Kv7.1, 70 μM, pH 10) it was “about −30 mV”; at Kv7.1 (Kv7.1, external pH 6.5) it was “abolishes the DHA effect”. Besides, at Kv7.1 (Kv7.1, 35 μM DHA alone), the “G(V) shift predicted from the concentration-response curve” value is recorded as −6.5 mV. The “c0.5 (pH-dependence of the G(V) shift)” value on Kv7.1 (Kv7.1, 70 μM) is 1.8*10^−8; at Kv7.1/KCNE1 (Kv7.1/KCNE1, 70 μM) it was 3.3*10^−9. Moreover, the “ΔVmax (pH-dependence of the G(V) shift)” value is given as −30.7 mV at Kv7.1 (Kv7.1, 70 μM) and −26.6 mV at Kv7.1/KCNE1 (Kv7.1/KCNE1, 70 μM). In addition, the “estimated maximum shift ΔVmax (concentration dependence)” value at Kv7.1 (Kv7.1, pH 7.4) was −15.8±2.3 mV and −15.8 mV. Also, the EC50 at Kv7.1 (Kv7.1, pH 7.4, read-out: c0.5, concentration causing 50% of the maximum shift) turned out to be 50 ± 20 µM; at Kv7.1 (Kv7.1, pH 9.0, read-out: C0.5 (concentration-response)) it was 10 µM. The “ΔVmax (concentration-response)” value on Kv7.1 (Kv7.1, pH 9.0) is given as −27.7 mV. The pKa at Kv7.1 (human, Xenopus laevis oocytes expressing human Kv7.1, Kv7.1, 70 μM, read-out: apparent pKa as reported by the shift of the G(V) relation) is about 7.7; on Kv7.1/KCNE1 (Kv7.1/KCNE1, 70 μM), 8.5. Further, the “G(V) shift of a representative cell (control curve shifted)” value on Kv7.1/KCNE1 (Kv7.1/KCNE1, 70 μM, pH 9) is on record as −35 mV; on KCNE1-Kv7.1 (KCNE1-Kv7.1), “+5.5 mV”; on KCNE1-Kv7.1-Kv7.1 (KCNE1-Kv7.1-Kv7.1) it was “+7 mV”.

As to `CCCCC/C=C\C/C=C\CCCCCCCC(=O)NCC(=O)O` [Lin-Gly, linoleoyl-glycine], the Kv7.1 affinity entry on Kv7.1 (compared among NAA, Lin-Gly, Ste-Gly, DHA-Gly, TTA, HTA) is “lowest affinity”.
